According to EP0609460A1, “PHARMACEUTICAL AGENT WITH A[…]” (KISLYAKOVA, Nonna Dmitrievna, priority 1992, dated 1994):

What was measured:
[1] = test system: hormone-susceptible DMBA-induced mammary gland cancer tumors; experiment: DMBA-induced hormone-susceptible mammary gland cancer in female rats, daily oral treatment; format: in vivo
[2] = test system: mammalian cancer cells; details: in vitro, cited from earlier work
[3] = test system: DMBA-induced mammary gland cancer; details: cited from earlier work; for per cent of complete regression (disappearance of tumor) / per cent of partial decrease of tumors / tumors which did not regress at all / per cent of general regression of all tumors: after 30 days of administration; for per cent of general regression of all tumors: oil solutions, about 15 mg/kg
[4] = test system: induced mammary gland cancer; experiment: Induced mammary gland cancer in rats, long-term growing tumors with lost androgen susceptibility (Table 1); format: in vivo, White random-bred rats
[5] = test system: hormone-susceptible malignant tumors in women; experiment: Clinical use in volunteer patients; details: long-term (up to 2 months) administration in low doses
Method: The duration of the course - 2 months.
The daily dose (with the patient's weight about 70 kg) consisted of 3 g DL-valine in combination with 25 mg (0.025 g or 5 tablets) methyltestosterone. The daile dose was divided into 3 single ones (1 g DL-valine in warm milk enterally and 1 tablet of methyltestosterone sublingually 3 times daily - on an empty stomach and before meals; and 1 tablet of methyltestosterone without DL-valine sublingually 2 times in the middle of the day before meals). The patient strictly observed the diet with the excess of protein, limited amount of carbohydrates and complete exclusion of animal fat and phospholipids (fish hard-roe, egg yolk), using no more than 1-2 table spoonfuls of vegetable oil daily.

Row | SMILES | per cent of complete regression (disappearance of tumor) [3] | per cent of partial decrease of tumors [3] | tumors which did not regress at all [3] | per cent of general regression of all tumors [3] | also measured
1 | CC(C)C(N)C(=O)O (racemic) [DL-valine] | – | – | – | – | regression effect ([1]; DL-valine 275 mg/kg in the mixture): disappears completely; optimal dose of DL-valine ([1]; in the mixture): 550 mg/kg; damage of non-malignant cells [2]: without any damage; cytotoxic effect on mammalian cancer cells ([2]; compared with other DL-amino acids): the strongest cytotoxic effect
2 | C[C@@H]1C[C@@]2(C)[C@@H](CC[C@@H]3[C@@H]2CC[C@]2(C)[C@@H](O)CC[C@@H]32)CC1=O [2α -methyldihydrotestosterone] | 20% | 60% | 20% | 80% | –
3 | CCC(=O)O[C@H]1CC[C@H]2[C@@H]3CC[C@H]4CC(=O)[C@H](C)C[C@]4(C)[C@H]3CC[C@]12C [2α-methyldihydrotestosterone propionate] | 50% | 20% | 30% | 70% | –
4 | C[C@]12C=CC(=O)C=C1CC[C@@H]1[C@@H]2CC[C@@]2(C)[C@H]1CC[C@]2(C)O [methandrostenolone] | – | – | – | – | optimal dose of methandrostenolone in mixture with DL-valine ([4]; long-term growing tumors 10 cm³ or larger): 20-25 mg/kg body weight
5 | C[C@]12CCC(=O)C=C1CC[C@@H]1[C@@H]2CC[C@@]2(C)[C@H]1CC[C@]2(C)O [methyltestosterone] | – | – | – | – | minimal effective dose ([1]; Rattus norvegicus, po, without DL-valine, read-out: dose from which methyltestosterone alone causes regression): ≥ 25 mg/kg; antiblastic effect alone, without DL-valine ([1]; nontherapeutic doses 5-10 mg/kg): cause no regression or even inhibition of the growth; better dose of methyltestosterone in combination with DL-valine ([1]; tumor sizes over 6.0 cm³ up to 8-10 cm³): 10 mg/kilo body weight; dose of methyltestosterone giving the optimal antiblastic effect in combination with DL-valine ([1]; tumors of 4.0 cm³ to 6.0 cm³): 5 mg per kilo body weight; experimental therapeutic dose ([3]; administered orally): 25-40 mg/kg per day; side effects [5]: weak manifestations of virilism
6 | COc1cc(C=NNC(=O)c2ccncc2)ccc1O [phthivazid] | – | – | – | – | optimal dose of phthivazid ([4]; with DL-valine and methandrostenolone, found empirically): 45-50 mg/kg body weight
7 | CCC(=O)O[C@H]1CC[C@H]2[C@@H]3CCC4=CC(=O)CC[C@]4(C)[C@H]3CC[C@]12C [testosterone propionate] | 10% | 30% | 60% | 40% | –
